This note sets out measurements from ChEMBL document CHEMBL3991948, “Rab7 GTPase inhibitors and related methods of treatment” (2014).

A short description of data set [1]: Chemical stability of the compound after 72 hrs in presence of 1 to 2.4 mg L-glutathione by LCMS analysis. The format is physicochemical.
Data set [2] concerns the target T1, Integrin alpha-4/beta-1 (Homo sapiens) (UniProt P05556+P13612). Kind of data set: Inhibition of FITC-LDV peptide binding to VLA4 in human U937 deltaST cells at 10 to 100 uM by FACScan flow cytometry. The format is cell-based. On the technique in general: Flow cytometry measures light scatter and fluorescence of single cells or particles in a stream.
In data set [3] the target is Ras-related protein Rab-7a (Homo sapiens) (UniProt P51149). The data set is described as follows: Displacement of BODIPY-GTP from nucleotide binding site of wild-type GST-tagged Rab7 GTPase (unknown origin) expressed in Escherichia coli BL21(DE3) in EDTA buffer assessed as residual activity after 2 hrs by flow cytometry.
Sequence of Ras-related protein Rab-7a (Homo sapiens) (P51149 whole entry): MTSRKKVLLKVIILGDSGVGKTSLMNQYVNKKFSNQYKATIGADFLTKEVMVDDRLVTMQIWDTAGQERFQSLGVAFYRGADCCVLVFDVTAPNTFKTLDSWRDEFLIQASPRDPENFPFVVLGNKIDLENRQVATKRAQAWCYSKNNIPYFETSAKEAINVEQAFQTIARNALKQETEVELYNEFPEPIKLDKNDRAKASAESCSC
Data set [4] shares this target. The data set is described as follows: Displacement of BODIPY-GTP from nucleotide binding site of wild-type GST-tagged Rab7 GTPase (unknown origin) expressed in Escherichia coli BL21(DE3) in Mg buffer assessed as residual activity after 2 hrs by flow cytometry.
Data set [5] is described as follows: Cytotoxicity against human U937 cells assessed as cell viability at 100 uM after 24 hrs by cell counting method (reference value: 94%). The class given is cell-based, U-937. To be noted: read-out: Activity.
The target in data set [6] is Ras-related protein Rab-7a (Homo sapiens) (UniProt P51149). The data set is described as follows: Displacement of BODIPY-GTP from nucleotide binding site of wild-type GST-tagged Rab7 GTPase (unknown origin) expressed in Escherichia coli BL21(DE3) after 2 hrs by flow cytometry relative to untreated control.
The target of data set [7] is T1, Integrin alpha-4/beta-1 (Homo sapiens). The data set is described as follows: Inhibition of FITC-LDV peptide binding to VLA4 in human U937 deltaST cells at 30 uM by FACScan flow cytometry. The format is cell-based.
Data set [8] has the same target. The data set is described as follows: Inhibition of FITC-LDV peptide binding to VLA4 in human U937 deltaST cells at 10 to 50 uM by FACScan flow cytometry. The class given is cell-based.

Activity calls are given as the source filed them. The rule behind the calls is not given here.

On to `CC1(C)Cc2c(sc(NC(=S)NC(=O)c3ccccc3)c2C(=O)O)CO1`, for which the Stability entry in data set [1] is “Stable”. The inhibition entry in data set [2] was “Active”.

Take `CC1(C)Cc2c(sc(NC(=S)NC(=O)c3ccc(F)cc3)c2C(=O)O)CO1`: the Activity in data set [3] turned out to be 100%.

Turning to `CC1Cc2c(sc(NC(=S)NC(=O)c3ccccc3)c2C(=O)O)CO1` (centres undefined), the Activity in data set [3] came out at 91%; in data set [4], 56%. Besides, in data set [5], the viability at 24 h, 100 µM came to 94%.

`Nc1nc2c(ncn2[C@@H]2O[C@H](COP(=O)(O)OP(=O)(O)O)[C@@H](O)[C@H]2O)c(=O)[nH]1`: the inhibition entry in data set [6] was “Active”.

`Nc1nc2c(ncn2[C@@H]2O[C@H](COP(=O)(O)OP(=O)(O)OP(=O)(O)O)[C@@H](O)[C@H]2O)c(=O)[nH]1`: the inhibition result in data set [6] is “Active”.

Consider `CC1(C)Cc2c(sc(NC(=O)NC(=O)c3ccccc3)c2C(=O)O)CO1`, for which, in data set [7], the inhibition result was “Active”. Moreover, the viability at 24 h, 100 µM in data set [5] amounted to 98%.

In the case of `O=C(NC(=S)Nc1sc2c(c1C(=O)O)CCOC2)c1ccccc1`, the Activity in data set [3] is 91%; in data set [4], 45%. Besides, the inhibition result in data set [8] is “Active”. Also, the viability at 24 h, 100 µM in data set [5] turned out to be 92%.
